Like-named read-outs stand apart in the source and are kept apart here.
Assays:
[1] = biological target: SHP-2 enzyme (Met1-Leu525) (Homo sapiens (Human), UniProt Q06124); test: SHP2 inhibition enzymatic assay; type: biochemical; conditions: 0.5 nM SHP-2 activated by 500 nM IRS1 peptide, 75 μM DiFMUP substrate; read-out: SHP2wt-IC50
In short: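 Compounds were preincubated 30 min with 0.5 nM SHP-2 (Met1-Leu525) plus 500 nM IRS1 activating peptide (pH 7.2 HEPES, 5 mM DTT), then 75 μM DiFMUP substrate reacted 30 min at room temperature. After bpV quench, DiFMUP fluorescence gave % inhibition; four-parameter logistic fit yielded IC50.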

[2] = test system: ERK phosphorylation in KYSE-520 cells; test: Phospho-ERK cellular assay; type: cell-based; conditions: KYSE-520 cells, 2 h at 37° C., phospho-ERK1/2 (Thr202/Tyr204) TR-FRET, read-out: PERK IC50
In short: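 TR-FRET read-out of ERK1/2 Thr202/Tyr204 phosphorylation was taken after overnight antibody incubation at room temperature. Before that, KYSE-520 cells were treated 2 h at 37 °C with compound dilutions and lysed 30 min. Percent inhibition relative to vehicle and cell-free wells was fitted four-parametrically to give IC50.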

Chain of SHP-2 enzyme (Met1-Leu525) (Q06124 1-525): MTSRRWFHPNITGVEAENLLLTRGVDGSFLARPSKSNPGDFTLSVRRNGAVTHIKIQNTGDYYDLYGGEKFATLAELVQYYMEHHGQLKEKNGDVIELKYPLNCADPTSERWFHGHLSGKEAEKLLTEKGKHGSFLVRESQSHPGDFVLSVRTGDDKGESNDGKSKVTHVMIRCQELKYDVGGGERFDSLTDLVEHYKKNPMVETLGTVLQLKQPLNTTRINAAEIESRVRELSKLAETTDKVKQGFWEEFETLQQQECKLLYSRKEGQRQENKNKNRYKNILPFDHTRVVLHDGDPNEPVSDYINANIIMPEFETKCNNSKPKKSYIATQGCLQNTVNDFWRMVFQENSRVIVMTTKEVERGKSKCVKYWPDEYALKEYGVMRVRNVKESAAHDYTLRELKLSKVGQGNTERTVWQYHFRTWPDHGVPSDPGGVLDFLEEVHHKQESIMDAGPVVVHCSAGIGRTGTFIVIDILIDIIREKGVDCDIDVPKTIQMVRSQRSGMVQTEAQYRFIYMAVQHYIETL

Row | IC50 [1] [nM] | IC50 ([2]; Homo sapiens, KYSE-520, 2 h) [nM] | IC50 [2] [nM] | Structure (SMILES)
1 | < 500 | < 1000 | – | NC[C@]1(c2ccccc2)[C@@H]2CN(c3cnc4c(-c5ccc(F)c6ncccc56)n[nH]c4n3)C[C@@H]21 [Example 510, ((1R,5S,6s)-3-(3-(8-fluoroquinolin-5-yl)-1H-pyrazolo[3,4-b]pyrazin-6-yl)-6-phenyl-3-azabicyclo[3.1.0]hexan-6-yl)methanamine]
2 | < 500 | < 1000 | – | Cn1ccc([C@@]2(CN)[C@@H]3CN(c4cnc5c(-c6ccc7nccnc7c6Cl)n[nH]c5n4)C[C@@H]32)n1 [Example 511, ((1R,5S,6r)-3-(3-(5-chloroquinoxalin-6-yl)-1H-pyrazolo[3,4-b]pyrazin-6-yl)-6-(1-methyl-1H-pyrazol-3-yl)-3-azabicyclo[3.1.0]hexan-6-yl)methanamine]
3 | < 500 | – | < 1000 | Cc1csc([C@@]2(CN)[C@@H]3CN(c4cnc5c(-c6ccc(C(N)=O)cc6Cl)n[nH]c5n4)C[C@@H]32)n1 [Example 512]
4 | < 500 | < 1000 | – | Cc1nc([C@@]2(CN)[C@@H]3CN(c4cnc5c(-c6ccc7nn(C)cc7c6Cl)n[nH]c5n4)C[C@@H]32)co1 [Example 514, ((1R,5S,6r)-3-(3-(4-chloro-2-methyl-2H-indazol-5-yl)-1H-pyrazolo[3,4-b]pyrazin-6-yl)-6-(2-methyloxazol-4-yl)-3-azabicyclo[3.1.0]hexan-6-yl)methanamine]
5 | < 500 | < 1000 | – | Cc1csc([C@@]2(CN)[C@@H]3CN(c4cnc5nc(Sc6ccnc(-n7cccn7)c6Cl)ccc5n4)C[C@@H]32)n1 [Example 515, ((1R,5S,6r)-3-(6-((3-chloro-2-(1H-pyrazol-1-yl)pyridin-4-yl)thio)pyrido[2,3-b]pyrazin-2-yl)-6-(4-methylthiazol-2-yl)-3-azabicyclo[3.1.0]hexan-6-yl)methanamine]
6 | < 500 | – | < 1000 | Cc1csc([C@@]2(CN)[C@@H]3CN(c4cnc5c(-c6ccnc(N)c6Cl)n[nH]c5n4)C[C@@H]32)n1 [Example 517]
7 | < 500 | – | < 1000 | Cc1csc([C@@]2(CN)[C@@H]3CN(c4cnc5c(-c6ccc7nn(CC(F)(F)F)cc7c6Cl)n[nH]c5n4)C[C@@H]32)n1 [Example 518]
8 | < 500 | < 1000 | – | CS(=O)(=O)c1ccc(-c2n[nH]c3nc(N4CC[C@@H]5[C@H](C4)[C@@]5(CN)c4ccccc4F)cnc23)c2cccnc12 [Example 521, ((1S,6R,7R)-7-(2-fluorophenyl)-3-(3-(8-(methylsulfonyl)quinolin-5-yl)-1H-pyrazolo[3,4-b]pyrazin-6-yl)-3-azabicyclo[4.1.0]heptan-7-yl)methanamine]
9 | < 500 | < 1000 | – | NC[C@]1(c2ccccc2F)[C@@H]2CCN(c3cnc4c(-c5ccnc(-n6cccc6)c5Cl)n[nH]c4n3)C[C@@H]21 [Example 522, ((1S,6R,7R)-3-(3-(3-chloro-2-(1H-pyrrol-1-yl)pyridin-4-yl)-1H-pyrazolo[3,4-b]pyrazin-6-yl)-7-(2-fluorophenyl)-3-azabicyclo[4.1.0]heptan-7-yl)methanamine]
10 | < 500 | < 1000 | – | NC[C@]1(c2ccccc2F)[C@@H]2CCN(c3cnc(Sc4ccc5nccnc5c4Cl)c(N)n3)C[C@@H]21 [Example 523, 6-((1S,6R,7R)-7-(aminomethyl)-7-(2-fluorophenyl)-3-azabicyclo[4.1.0]heptan-3-yl)-3-((5-chloroquinoxalin-6-yl)thio)pyrazin-2-amine]
11 | < 500 | > 5000 | – | NC[C@]1(c2ccccc2F)[C@@H]2CCN(c3cnc(Sc4ccnc5ccccc45)c(N)n3)C[C@@H]21 [Example 524, 6-((1S,6R,7R)-7-(aminomethyl)-7-(2-fluorophenyl)-3-azabicyclo[4.1.0]heptan-3-yl)-3-(quinolin-4-ylthio)pyrazin-2-amine]
12 | < 500 | > 5000 | – | NC[C@]1(c2ccccc2F)[C@@H]2CCN(c3cnc(Sc4ccc(C(N)=O)c5ncccc45)c(N)n3)C[C@@H]21 [Example 525, 5-((3-amino-5-((1S,6R,7R)-7-(aminomethyl)-7-(2-fluorophenyl)-3-azabicyclo[4.1.0]heptan-3-yl)pyrazin-2-yl)thio)quinoline-8-carboxamide]
13 | < 500 | 1000 to 5000 | – | Cn1cnc2ccc(-c3ccc4nc(N5CC[C@@H]6[C@H](C5)[C@@]6(CN)c5cc(F)ccc5F)cnc4n3)cc21 [Example 527, ((1S,6R,7R)-7-(2,5-difluorophenyl)-3-(6-(1-methyl-1H-benzo[d]imidazol-6-yl)pyrido[2,3-b]pyrazin-2-yl)-3-azabicyclo[4.1.0]heptan-7-yl)methanamine]
14 | < 500 | – | < 1000 | Cc1csc([C@@]2(CN)[C@@H]3CN(c4cnc5c(-c6ccc7nn(C8CC8)cc7c6Cl)n[nH]c5n4)C[C@@H]32)n1 [Example 528]
15 | < 500 | < 1000 | – | Cc1nccc(-c2ccc3nc(N4CC[C@@H]5[C@H](C4)[C@@]5(CN)c4ccccc4F)cnc3n2)c1F [Example 529]
16 | < 500 | > 5000 | – | NC[C@]1(c2ccccc2F)[C@@H]2CCN(c3cnc4nc(-c5ccnc(-n6cccn6)c5)ccc4n3)C[C@@H]21 [Example 530, ((1S,6R,7R)-3-(6-(2-(1H-pyrazol-1-yl)pyridin-4-yl)pyrido[2,3-b]pyrazin-2-yl)-7-(2-fluorophenyl)-3-azabicyclo[4.1.0]heptan-7-yl)methanamine]

Row | Structure (SMILES) | IC50 [1] [nM] | IC50 ([2]; Homo sapiens, KYSE-520, 2 h) [nM] | IC50 [2] [nM]
17 | Cc1csc([C@@]2(CN)[C@@H]3CN(c4cnc5c(-c6ccncc6Cl)n[nH]c5n4)C[C@@H]32)n1 [Example 519] | < 500 | – | < 1000

From patent publication US20240109900A1, “AZABICYCLIC SHP2 INHIBITORS” (IRBM S.P.A., priority 2021, published 2024)
